Assays:
[1] = O-1602 release of O-1602 derivatives under different pH conditions (HPLC area percentage); assay type: physicochemical; details: for completeness of O-1602 release (in words): partial release with degradation into other impurities
Experimental: Example 1: Experimental on O-1602 Releases of O-1602 Derivatives Under Different pH Conditions
• Chromatographic column: shimnex CS C18 5 μm, 4.6*250 mm • Mobile phase A: 0.1% phosphoric acid in water; mobile phase B: acetonitrile (see Table 1)
Buffer solution (pH 1.6): 32.4 ml of 0.2 mol/L hydrochloric acid was accurately measured, diluted with water to 200 ml, and shaken well.
Phosphate buffer (pH 5.0): a certain amount of 0.2 mol/L sodium dihydrogen phosphate solution was taken and the pH value was adjusted by using 0.2 mol/L sodium hydroxide solution to 5.0.
Phosphate buffer (pH 6.8): a certain amount of 0.2 mol/L sodium dihydrogen phosphate solution was taken and the pH value was adjusted by using 0.2 mol/L sodium hydroxide solution to 6.8.
Phosphate buffer (pH 7.2): a certain amount of 0.2 mol/L sodium dihydrogen phosphate solution was taken and the pH value was adjusted by using 0.2 mol/L sodium hydroxide solution to 7.2.
Phosphate buffer (pH 8.0): a certain amount of 0.2 mol/L sodium dihydrogen phosphate solution was taken and the pH value was adjusted by using 0.2 mol/L sodium hydroxide solution to 8.0.
About 1 mg of O-1602 derivative was placed in a 2 mL centrifuge tube and dissolved by adding 1 mL of acetonitrile. Then 1 mL of buffer solution was added and shaken well. The obtained solution was incubated at 37° C., and sampled for determination respectively after for 2 hours and 4 hours. (The releases of O-1602 were respectively investigated at pH 1.6, pH 5.0, pH 6.8, pH 7.2, and pH 8.0)
Calculations: the content of O-1602 was calculated by area percentage.

[2] = system: CS7BL/6 mice with TNBS-induced acute enteritis; test: 2,4,6-trinitrobenzene sulfonic acid (TNBS)-induced acute enteritis in mice; assay type: in vivo; details: for disease activity index (DAI) / damage to colon tissue / length of colon / weight loss in model animals: 1 mg/kg, once daily gavage; for disease activity index (DAI): day 0 to day 4, FIG. 3; for damage to colon tissue: dissection on day 5, FIG. 5; for length of colon: dissection on day 5, FIGS. 4 and 5; for efficacy compared with tofacitinib: derivative 1 mg/kg versus positive control tofacitinib; for weight loss in model animals: day 0 to day 4, FIG. 2
Experimental: CS7BL/6 mice, male, and female, 6 to 10 weeks old were used. On day-7 of the experiment, the experimental animals were weighed, and the mice were randomly divided into cages according to their body weights. The animals were allowed to adapt to the environment of the animal room. The animal room was maintained at a constant temperature (23° C.±3° C.) and constant humidity (50% relative humidity). Animals are fed standard laboratory food and have free access to drinking water. On day 0, mice were induced for TNBS colitis by intrarectal injection. The dosage of TNBS was 125 mg/kg. The solvent was 30% alcohol. Each mouse received a volume of 100 μl. After the rectal injection, the mice were inverted for 1 minute to prevent leakage of the drug solution.
The solid O-1602 derivative was dissolved in DMSO at a concentration of 2 mg/ml. The above solution was diluted to 0.1 mg/ml using PBS. TNBS enteritis mice received once daily gavage in a volume of 200 μl and were dosed daily at 11:00 a. m. The dosage of the O-1602 derivative was 1 mg/kg. The treatment schedule for the O-1602 derivative was from day 0 to day 4 of the TNBS. The mice in the control group were administered with an equal volume of solvent by gavage. At the same time, the anti-colitis drug JAK inhibitor tofacitinib was used as a positive control. The experimental results of O-1602 derivatives in this model experiment were compared. The O-1602 derivatives were dissolved in the above-mentioned way; the concentration was 1.5 mg/mL; the volume of intragastric administration was 200 μL; and the dosage was 15 mg/kg.
Mice were observed daily for body weight and anal bleeding, and the daily disease activity index (DAI) was calculated and recorded.
The experiment was terminated on day 5 of TNBS. Mice were euthanized by cervical amputation under isoflurane anesthesia. The mice were dissected and the whole colon was obtained. The length of the colon was measured and photographed.

[3] = pH 1.6~8.0, 37° C., 2 hours and 4 hours

Compound: C=C(C)[C@@H]1CCC(C)=C[C@H]1c1c(C)cc(OC(=O)NCCN2CCN(C)CC2)cc1OC(=O)NCCN1CCN(C)CC1 [Compound 11]
- release amount of O-1602 (in words) [1, 3]: small amount
- disease activity index (DAI) [2]: significantly alleviated
- damage to colon tissue [2]: reduced
- length of colon [2]: increased
- efficacy compared with tofacitinib [2]: superior efficacy

Compound: C=C(C)[C@@H]1CCC(C)=C[C@H]1c1c(C)cc(OC(=O)OCCN(CC)CC)cc1OC(=O)OCCN(CC)CC [Compound 1]
- Principal component % ([1]; 0 h): 97.185%
- Principal component % ([1]; Buffer (pH 1.6), 37° C., 2 h): 96.906%
- Principal component % ([1]; Buffer (pH 1.6), 37° C., 4 h): 94.115%
- Principal component % ([1]; Buffer (pH 5.0), 37° C., 2 h): 78.030%
- O-1602% ([1]; Buffer (pH 5.0), 37° C., 4 h): 0.457%
- Principal component % ([1]; Buffer (pH 5.0), 37° C., 4 h): 24.651%
- O-1602% ([1]; Buffer (pH 6.8), 37° C., 2 h): 9.801%
- O-1602% ([1]; Buffer (pH 6.8), 37° C., 4 h): 20.813%
- O-1602% ([1]; Buffer (pH 7.2), 37° C., 2 h): 6.354%
- O-1602% ([1]; Buffer (pH 7.2), 37° C., 4 h): 20.172%
- O-1602% ([1]; Buffer (pH 8.0), 37° C., 2 h): 11.455%
- O-1602% ([1]; Buffer (pH 8.0), 37° C., 4 h): 33.963%
- release amount of O-1602 (in words) [1, 3]: relatively high
- completeness of O-1602 release (in words) ([1]; pH 1.6~8.0, 37° C.): only partially released
- weight loss in model animals [2]: significantly alleviated

Compound: C=C(C)[C@@H]1CCC(C)=C[C@H]1c1c(C)cc(OC(=O)NC(C(=O)O)C(C)C)cc1OC(=O)NC(C(=O)O)C(C)C (stereo partly shown) [Compound 3]
- weight loss in model animals [2]: significantly alleviated
- disease activity index (DAI) [2]: significantly alleviated
- damage to colon tissue [2]: reduced
- length of colon [2]: increased
- efficacy compared with tofacitinib [2]: superior efficacy

Compound: C=C(C)[C@@H]1CCC(C)=C[C@H]1c1c(C)cc(OC(=O)NCCCCN)cc1O [Compound 6]
- release amount of O-1602 (in words) [1, 3]: small amount
- weight loss in model animals [2]: significantly alleviated
- disease activity index (DAI) [2]: significantly alleviated
- damage to colon tissue [2]: reduced
- length of colon [2]: increased
- efficacy compared with tofacitinib [2]: superior efficacy

Compound: C=C(C)[C@@H]1CCC(C)=C[C@H]1c1c(C)cc(OC(=O)CN(C)C)cc1O [Compound 13]
- O-1602 release (in words) ([1]; acidic buffer solution (pH 1.6), 37° C., 4 hours): trace amount
- release amount of O-1602 (in words) [1, 3]: small amount

Compound: C=C(C)[C@@H]1CCC(C)=C[C@H]1c1c(C)cc(OC(C)=O)cc1OC(C)=O [Compound 2]
- release amount of O-1602 (in words) [1, 3]: no O-1602 was released

Compound: C=C(C)[C@@H]1CCC(C)=C[C@H]1c1c(C)cc(OC(=O)C(N)C(C)C)cc1OC(=O)C(N)C(C)C (stereo partly shown) [Compound 7]
- Principal component % ([1]; 0 h): 87.691%
- Principal component % ([1]; Buffer (pH 1.6), 37° C., 2 h): 79.094%
- Principal component % ([1]; Buffer (pH 1.6), 37° C., 4 h): 81.424%
- O-1602% ([1]; Buffer (pH 5.0), 37° C., 2 h): 1.088%
- Principal component % ([1]; Buffer (pH 5.0), 37° C., 2 h): 26.693%
- O-1602% ([1]; Buffer (pH 5.0), 37° C., 4 h): 3.800%
- Principal component % ([1]; Buffer (pH 5.0), 37° C., 4 h): 8.307%
- O-1602% ([1]; Buffer (pH 6.8), 37° C., 2 h): 1.972%
- Principal component % ([1]; Buffer (pH 6.8), 37° C., 2 h): 3.401%
- O-1602% ([1]; Buffer (pH 6.8), 37° C., 4 h): 3.518%
- Principal component % ([1]; Buffer (pH 6.8), 37° C., 4 h): 1.551%
- O-1602% ([1]; Buffer (pH 7.2), 37° C., 2 h): 29.354%
- O-1602% ([1]; Buffer (pH 7.2), 37° C., 4 h): 19.343%
- O-1602% ([1]; Buffer (pH 8.0), 37° C., 2 h): 11.933%
- O-1602% ([1]; Buffer (pH 8.0), 37° C., 4 h): 43.976%
- release amount of O-1602 (in words) [1, 3]: relatively high
- completeness of O-1602 release (in words) ([1]; pH 1.6~8.0, 37° C.): only partially released
- weight loss in model animals [2]: significantly alleviated
- disease activity index (DAI) [2]: significantly alleviated
- damage to colon tissue [2]: reduced
- length of colon [2]: increased
- efficacy compared with tofacitinib [2]: superior efficacy

Compound: C=C(C)[C@@H]1CCC(C)=C[C@H]1c1c(C)cc(OC(=O)N(C)C)cc1OC(=O)N(C)C [Compound 8]
- release amount of O-1602 (in words) [1, 3]: no O-1602 was released
- stability (in words) [1, 3]: good stability
